We go through 7 compounds from ChEMBL document CHEMBL1129347, “Topographical amino acid substitution in position 10 of glucagon leads to antagonists/partial agonists with greater binding differences” (J Med Chem, 1996).

Each structure is given as a SMILES string.

This test deals with Glucagon receptor (Rattus norvegicus, UniProt P30082). Briefly: Inhibition of [125I]glucagon binding towards Glucagon receptor.
Chain of Glucagon receptor (P30082 whole entry): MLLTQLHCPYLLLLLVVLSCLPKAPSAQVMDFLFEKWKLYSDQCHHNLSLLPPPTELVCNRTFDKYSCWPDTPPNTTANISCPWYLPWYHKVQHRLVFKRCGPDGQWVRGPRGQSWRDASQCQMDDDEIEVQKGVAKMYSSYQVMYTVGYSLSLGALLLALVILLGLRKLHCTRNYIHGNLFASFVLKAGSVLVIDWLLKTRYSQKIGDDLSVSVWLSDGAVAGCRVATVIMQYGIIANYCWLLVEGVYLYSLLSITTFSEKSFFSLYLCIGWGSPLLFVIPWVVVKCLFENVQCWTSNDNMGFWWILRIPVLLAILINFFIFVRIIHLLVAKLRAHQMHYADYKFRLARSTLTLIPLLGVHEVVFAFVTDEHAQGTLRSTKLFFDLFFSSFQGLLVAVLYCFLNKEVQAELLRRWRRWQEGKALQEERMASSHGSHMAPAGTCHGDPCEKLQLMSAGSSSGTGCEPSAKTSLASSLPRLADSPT
`CSCC[C@H](NC(=O)[C@H](CC(C)C)NC(=O)[C@H](Cc1c[nH]c2ccccc12)NC(=O)[C@H](CCC(N)=O)NC(=O)[C@@H](NC(=O)[C@H](Cc1ccccc1)NC(=O)[C@H](CC(=O)O)NC(=O)[C@H](CCC(N)=O)NC(=O)[C@H](C)NC(=O)[C@H](CCCNC(=N)N)NC(=O)[C@H](CCCNC(=N)N)NC(=O)[C@H](CO)NC(=O)[C@H](CC(=O)O)NC(=O)[C@H](CC(C)C)NC(=O)[C@H](Cc1ccc(O)cc1)NC(=O)[C@H](CCCCN)NC(=O)[C@H](CO)NC(=O)[C@@H](Cc1ccccc1)NC(=O)[C@H](CCC(=O)O)NC(=O)[C@H](CO)NC(=O)[C@@H](NC(=O)[C@H](Cc1ccccc1)NC(=O)[C@H](Cc1ccc(O)cc1)NC(=O)CNC(=O)[C@H](CCC(N)=O)NC(=O)[C@@H](N)CO)[C@@H](C)O)C(C)C)C(=O)N[C@@H](CC(N)=O)C(=O)N[C@H](C(N)=O)[C@@H](C)O` yielded an IC50 of 0.0345 µM.

Compound `CSCC[C@H](NC(=O)[C@H](CC(C)C)NC(=O)[C@H](Cc1c[nH]c2ccccc12)NC(=O)[C@H](CCC(N)=O)NC(=O)[C@@H](NC(=O)[C@H](Cc1ccccc1)NC(=O)[C@H](CC(=O)O)NC(=O)[C@H](CCC(N)=O)NC(=O)[C@H](C)NC(=O)[C@H](CCCNC(=N)N)NC(=O)[C@H](CCCNC(=N)N)NC(=O)[C@H](CO)NC(=O)[C@H](CC(=O)O)NC(=O)[C@H](CC(C)C)NC(=O)[C@H](Cc1ccc(O)cc1)NC(=O)[C@H](CCCCN)NC(=O)[C@H](CO)NC(=O)[C@H](C)NC(=O)[C@H](CCC(=O)O)NC(=O)[C@H](CO)NC(=O)[C@@H](NC(=O)[C@H](Cc1ccccc1)NC(=O)[C@H](Cc1ccc(O)cc1)NC(=O)CNC(=O)[C@H](CCC(N)=O)NC(=O)[C@@H](N)CO)[C@@H](C)O)C(C)C)C(=O)N[C@@H](CC(N)=O)C(=O)N[C@H](C(N)=O)[C@@H](C)O` yielded an IC50 of 0.395 µM.

`CSCC[C@H](NC(=O)[C@H](CC(C)C)NC(=O)[C@H](Cc1c[nH]c2ccccc12)NC(=O)[C@H](CCC(N)=O)NC(=O)[C@@H](NC(=O)[C@H](Cc1ccccc1)NC(=O)[C@H](CC(=O)O)NC(=O)[C@H](CCC(N)=O)NC(=O)[C@H](C)NC(=O)[C@H](CCCNC(=N)N)NC(=O)[C@H](CCCNC(=N)N)NC(=O)[C@H](CO)NC(=O)[C@H](CC(=O)O)NC(=O)[C@H](CC(C)C)NC(=O)[C@H](Cc1ccc(O)cc1)NC(=O)[C@H](CCCCN)NC(=O)[C@H](CO)NC(=O)[C@H](Cc1ccccc1)NC(=O)[C@H](CCC(=O)O)NC(=O)[C@H](CO)NC(=O)[C@@H](NC(=O)[C@H](Cc1ccccc1)NC(=O)[C@H](Cc1ccc(O)cc1)NC(=O)CNC(=O)[C@H](CCC(N)=O)NC(=O)[C@@H](N)CO)[C@@H](C)O)C(C)C)C(=O)N[C@@H](CC(N)=O)C(=O)N[C@H](C(N)=O)[C@@H](C)O` had an IC50 of 0.0041 µM.

`CSCC[C@H](NC(=O)[C@H](CC(C)C)NC(=O)[C@H](Cc1c[nH]c2ccccc12)NC(=O)[C@H](CCC(N)=O)NC(=O)[C@@H](NC(=O)[C@H](Cc1ccccc1)NC(=O)[C@H](CC(=O)O)NC(=O)[C@H](CCC(N)=O)NC(=O)[C@H](C)NC(=O)[C@H](CCCN=C(N)N)NC(=O)[C@H](CCCN=C(N)N)NC(=O)[C@H](CO)NC(=O)[C@H](CC(=O)O)NC(=O)[C@H](CC(C)C)NC(=O)[C@H](Cc1ccc(O)cc1)NC(=O)[C@H](CCCCN)NC(=O)[C@H](CO)NC(=O)[C@@H](Cc1ccc(O)cc1)NC(=O)[C@H](CCC(=O)O)NC(=O)[C@H](CO)NC(=O)[C@@H](NC(=O)[C@H](Cc1ccccc1)NC(=O)[C@H](Cc1ccc(O)cc1)NC(=O)CNC(=O)[C@H](CCC(N)=O)NC(=O)[C@@H](N)CO)[C@@H](C)O)C(C)C)C(=O)N[C@@H](CC(N)=O)C(=O)N[C@H](C(N)=O)[C@@H](C)O`: the IC50 was 0.074 µM.

`CSCC[C@H](NC(=O)[C@H](CC(C)C)NC(=O)[C@H](Cc1c[nH]c2ccccc12)NC(=O)[C@H](CCC(N)=O)NC(=O)[C@@H](NC(=O)[C@H](Cc1ccccc1)NC(=O)[C@H](CC(=O)O)NC(=O)[C@H](CCC(N)=O)NC(=O)[C@H](C)NC(=O)[C@H](CCCN=C(N)N)NC(=O)[C@H](CCCN=C(N)N)NC(=O)[C@H](CO)NC(=O)[C@H](CC(=O)O)NC(=O)[C@H](CC(C)C)NC(=O)[C@H](Cc1ccc(O)cc1)NC(=O)[C@H](CCCCN)NC(=O)[C@H](CO)NC(=O)[C@@H](NC(=O)[C@H](CCC(=O)O)NC(=O)[C@H](CO)NC(=O)[C@@H](NC(=O)[C@H](Cc1ccccc1)NC(=O)[C@H](Cc1ccc(O)cc1)NC(=O)CNC(=O)[C@H](CCC(N)=O)NC(=O)[C@@H](N)CO)[C@@H](C)O)[C@H](C)c1ccccc1)C(C)C)C(=O)N[C@@H](CC(N)=O)C(=O)N[C@H](C(N)=O)[C@@H](C)O` gave an IC50 of 0.01 µM.

Consider `CSCC[C@H](NC(=O)[C@H](CC(C)C)NC(=O)[C@H](Cc1c[nH]c2ccccc12)NC(=O)[C@H](CCC(N)=O)NC(=O)[C@@H](NC(=O)[C@H](Cc1ccccc1)NC(=O)[C@H](CC(=O)O)NC(=O)[C@H](CCC(N)=O)NC(=O)[C@H](C)NC(=O)[C@H](CCCN=C(N)N)NC(=O)[C@H](CCCN=C(N)N)NC(=O)[C@H](CO)NC(=O)[C@H](CC(=O)O)NC(=O)[C@H](CC(C)C)NC(=O)[C@H](Cc1ccc(O)cc1)NC(=O)[C@H](CCCCN)NC(=O)[C@H](CO)NC(=O)[C@H](Cc1ccc(O)cc1)NC(=O)[C@H](CCC(=O)O)NC(=O)[C@H](CO)NC(=O)[C@@H](NC(=O)[C@H](Cc1ccccc1)NC(=O)[C@H](Cc1ccc(O)cc1)NC(=O)CNC(=O)[C@H](CCC(N)=O)NC(=O)[C@@H](N)CO)[C@@H](C)O)C(C)C)C(=O)N[C@@H](CC(N)=O)C(=O)N[C@H](C(N)=O)[C@@H](C)O`, for which the IC50 was determined as 0.0023 µM.

Turning to `CSCC[C@H](NC(=O)[C@H](CC(C)C)NC(=O)[C@H](Cc1c[nH]c2ccccc12)NC(=O)[C@H](CCC(N)=O)NC(=O)[C@@H](NC(=O)[C@H](Cc1ccccc1)NC(=O)[C@H](CC(=O)O)NC(=O)[C@H](CCC(N)=O)NC(=O)C(C)NC(=O)[C@H](CCCN=C(N)N)NC(=O)[C@H](CCCN=C(N)N)NC(=O)[C@H](CO)NC(=O)[C@H](CC(=O)O)NC(=O)[C@H](CC(C)C)NC(=O)[C@H](Cc1ccc(O)cc1)NC(=O)[C@H](CCCCN)NC(=O)[C@H](CO)NC(=O)C(C)NC(=O)[C@H](CCC(=O)O)NC(=O)[C@H](CO)NC(=O)[C@@H](NC(=O)[C@H](Cc1ccccc1)NC(=O)[C@H](Cc1ccc(O)cc1)NC(=O)CNC(=O)[C@H](CCC(N)=O)NC(=O)[C@@H](N)CO)[C@@H](C)O)C(C)C)C(=O)N[C@@H](CC(N)=O)C(=O)N[C@H](C(N)=O)[C@@H](C)O` (stereo in doubt), the IC50 was 0.51 µM.
